Reference: patent US8822430B2 (Gilead Sciences, Inc., priority 2009, dated 2014)

What follows are compounds tested on HCV 1b RLuc cells (dicistronic genotype 1b Con1 replicon) (assay: Renilla luciferase (RLuc)-based HCV replicon reporter assay). Details: HCV 1b RLuc replicon, 72 hours; read-out: Activity (antiviral potency [EC50]).
Format: cell-based, HCV genotype 1b
Procedure, shortened: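 EC50 values were calculated by non-linear regression of Renilla luciferase signal from lysed cells after 72 h of compound exposure. Cells harboured a genotype 1b Con1 dicistronic replicon encoding RLuc. Compounds were serially diluted in DMSO from 10 mM stocks into culture media.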
In the case of `COC(=O)N[C@H](C(=O)N1CCC[C@H]1c1ncc(-c2ccc(-c3ccc(-c4cnc([C@@H]5CSC(c6ccncc6)N5C(=O)OCc5ccccc5)[nH]4)cc3)cc2)[nH]1)C(C)C` (single isomer, unassigned) [drawing 1302], the EC50 is reported as 0.0209 nM.

Same assay, conditions: Hepatitis C virus, 72 h, HCV 1b RLuc replicon, 72 hours; read-out: Activity (antiviral potency [EC50])
`COC(=O)N[C@H](C(=O)N1CCC[C@H]1c1ncc(-c2ccc3c(c2)COc2c-3ccc3cc(-c4cnc([C@@H]5CCCN5C(=O)[C@@H](NC(=O)OC)C5CCOCC5)[nH]4)ccc23)[nH]1)C1CCOCC1` was tested, and the EC50 was 0.0417 nM.
`COC(=O)N[C@H](C(=O)N1CC2(CC2)C[C@H]1c1ncc(-c2ccc3cc(-c4ccc(-c5cnc([C@@H]6C[C@H](C#N)CN6C(=O)[C@@H](NC(=O)OC)C(C)(C)C)[nH]5)cc4)ccc3c2)[nH]1)C(C)C` was tested, and the EC50 was 0.0127 nM.
In the case of `COC(=O)N[C@H](C(=O)N1CCC[C@H]1c1ncc(-c2ccc(-c3ccc4cc(-c5cnc([C@@H]6CCCN6C(=O)[C@@H](NC(=O)OC)C(C)C)[nH]5)ccc4c3)cc2)[nH]1)c1ccc(F)cc1`, the EC50 is reported as 0.043 nM.
Work on `COC(=O)N[C@H](C(=O)N1CCC[C@H]1c1ncc(-c2ccc(-c3ccc(-c4cnc([C@@H]5[C@H]6CC[C@H](C6)N5C(=O)[C@@H](NC(=O)OC)C(C)C)[nH]4)cc3)cc2)[nH]1)C(C)C` yielded an EC50 of 0.0073 nM.
Work on `COC(=O)N[C@@H](CCC#N)C(=O)N1CC2(CC2)C[C@H]1c1ncc(-c2ccc3cc(-c4ccc(-c5cnc([C@@H]6[C@H]7CC[C@H](C7)N6C(=O)[C@@H](NC(=O)OC)C(C)C)[nH]5)cc4)ccc3c2)[nH]1` yielded an EC50 of 0.0159 nM.
`COC(=O)N[C@H](C(=O)N1CCC[C@H]1C(=O)NCc1ccc(-c2ccc(-c3cnc([C@@H]4CCCN4C(=O)[C@@H](NC(=O)OC)C(C)C)[nH]3)cc2)cc1)C(C)C` was tested, and the EC50 was 1.4 nM.
`COC(=O)N[C@H](C(=O)N1CCC[C@H]1c1ncc(-c2ccc3cc4cc(-c5cnc([C@@H]6CCCN6C(=O)[C@@H](NC(=O)OC)C(C)C)[nH]5)ccc4cc3c2)[nH]1)C(C)C` was tested, and the EC50 was 0.007 nM.
`COC(=O)N[C@H](C(=O)N1CCC[C@H]1c1ncc(-c2ccc3c(c2)COCc2cc(-c4cnc([C@@H]5CCCN5C(=O)[C@@H](NC(=O)OC)C(C)C)[nH]4)ccc2-3)[nH]1)C(C)C` showed an EC50 of 0.0327 nM.
`COC(=O)N[C@H](C(=O)N1CCC[C@H]1c1ncc(-c2ccc(-c3ccc(-c4cnc([C@H](C)N5CCC[C@@H](NC(=O)OC)C5=O)[nH]4)cc3)cc2)[nH]1)C(C)C` was tested, and the EC50 was 0.661 nM.
With `COC(=O)N[C@H](C(=O)N1CC2(C[C@H]1c1ncc(-c3ccc(-c4ccc(-c5cnc([C@@H]6CC7(CN6C(=O)[C@@H](NC(=O)OC)C(C)C)OCCO7)[nH]5)cc4)cc3)[nH]1)OCCO2)C(C)C` the EC50 was 0.105 nM.
For `COC(=O)N[C@H](C(=O)N1CCC[C@H]1c1ncc(-c2ccc3c(c2)sc2cc(-c4ccc5nc([C@@H]6[C@H]7CC[C@H](C7)N6C(=O)[C@@H](NC(=O)OC)C(C)C)[nH]c5c4)ccc23)[nH]1)C(C)C`, the EC50 was 0.0037 nM.
`COC(=O)N[C@H](C(=O)N1[C@@H]2CC[C@@H](C2)[C@H]1c1ncc(-c2ccc(-c3ccc4cc(-c5cnc([C@@H]6CC7(CC7)CN6C(=O)[C@@H](NC(=O)OC)C6CCOCC6)[nH]5)ccc4c3)cc2)[nH]1)C(C)C` gave an EC50 of 0.0136 nM.
For `COC(=O)N[C@H](C(=O)N1CCC[C@H]1c1ncc(-c2ccc3c(c2)C(C)(C)c2cc(-c4cnc([C@@H]5CCCN5C(=O)[C@@H](NC(=O)OC)C(C)C)[nH]4)ccc2-3)[nH]1)C(C)C`, the EC50 was 0.0102 nM.
With `COC(=O)N[C@H](C(=O)N1CCC[C@H]1c1ncc(-c2ccc(-c3cnc([C@@H]4CCCN4C(=O)[C@@H](NC(=O)OC)C(C)C)[nH]3)cc2)[nH]1)C(C)C` the EC50 was 1.22 nM.
In the case of `CC[C@H](NC(=O)OC)C(=O)N1CC2(CC2)C[C@H]1c1ncc(-c2ccc3cc(-c4ccc(-c5cnc([C@@H]6[C@H]7CC[C@H](C7)N6C(=O)[C@@H](NC(=O)OC)C(C)C)[nH]5)cc4)ccc3c2)[nH]1`, the EC50 is reported as 0.0181 nM.
Work on `COC(=O)N[C@H](C(=O)N1CCC[C@H]1c1ncc(-c2ccc3cc(-c4ccc(-c5cnc([C@@H]6CCCN6C(=O)[C@@H](NC(=O)OC)C6Cc7ccccc7C6)[nH]5)cc4)ccc3c2)[nH]1)C(C)C` yielded an EC50 of 0.0104 nM.
`COC(=O)N[C@H](C(=O)N1CCC[C@H]1c1ncc(-c2ccc3c(c2)Sc2ccc(-c4cnc([C@@H]5CCCN5C(=O)[C@@H](NC(=O)OC)C(C)C)[nH]4)cc2S3)[nH]1)C(C)C` gave an EC50 of 0.0058 nM.
For `COC(=O)N[C@@H](C)C(=O)N1[C@@H]2CC[C@@H](C2)[C@H]1c1ncc(-c2ccc3c(c2)CCc2cc(-c4cnc([C@@H]5CCCN5C(=O)[C@@H](NC(=O)OC)C(C)C)[nH]4)ccc2-3)[nH]1`, the EC50 was 0.0126 nM.
Work on `COC(=O)N[C@H](C(=O)N1CCC[C@H]1c1ncc(-c2ccc(-c3ccn(-c4cnc([C@@H]5CCCN5C(=O)[C@@H](NC(=O)OC)C(C)C)[nH]4)c(=O)c3)cc2)[nH]1)C(C)C` yielded an EC50 of 15.9 nM.
Compound `COC(=O)N[C@H](C(=O)N1CCC[C@H]1c1ncc(-c2ccc3cc(-c4ccc(-c5cnc([C@@H]6CCCN6C(=O)[C@@H](NC(=O)OC)C6CCOCC6)[nH]5)cc4)ccc3c2)[nH]1)C(C)C` has an EC50 of 0.0131 nM.
Compound `COC(=O)N[C@H](C(=O)N1CCC[C@H]1c1ncc(-c2ccc3cc(-c4ccc(-c5cnc([C@@H]6CCCN6C(=O)[C@@H](Cc6cn(C)c7ccccc67)NC(=O)OC)[nH]5)cc4)ccc3c2)[nH]1)C(C)C` has an EC50 of 6.18 nM.
For `COC(=O)N[C@H](C(=O)N1CCC[C@H]1c1ncc(-c2cc3c(OC)c4sc(-c5cnc([C@@H]6CCCN6C(=O)[C@@H](NC(=O)OC)C6CCOCC6)[nH]5)cc4c(OC)c3s2)[nH]1)C1CCOCC1`, the EC50 was 0.419 nM.
Work on `COC[C@H]1C[C@@H](c2ncc(-c3ccc(-c4ccc5cc(-c6cnc([C@@H]7CC8(CC8)CN7C(=O)[C@@H](NC(=O)OC)C(C)C)[nH]6)ccc5c4)cc3)[nH]2)N(C(=O)[C@@H](NC(=O)OC)C(C)C)C1` yielded an EC50 of 0.0073 nM.
`CNC(=O)N1C[C@@H](c2ncc(-c3ccc(C#Cc4ccc(-c5cnc([C@@H]6CCCN6C(=O)[C@@H](NC(=O)OC)C(C)C)[nH]5)cc4)cc3)[nH]2)N(C(=O)[C@@H](NC(=O)OC)C(C)C)C1` gave an EC50 of 0.245 nM.
`COC(=O)N[C@H](C(=O)N1CCC[C@H]1c1ncc(-c2cc3c(OC)c4sc(-c5cnc([C@@H]6CCCN6C(=O)[C@@H](NC(=O)OC)C(C)C)[nH]5)cc4c(OC)c3s2)[nH]1)C(C)C` was tested, and the EC50 was 0.0161 nM.
For `COC(=O)N[C@H](C(=O)N1CCC[C@H]1c1ncc(C#Cc2ccc(-c3cnc([C@@H]4CCCN4C(=O)[C@@H](NC(=O)OC)C(C)C)[nH]3)cc2)[nH]1)C(C)C`, the EC50 was 0.139 nM.
With `COC(=O)N[C@H](C(=O)N1CCC[C@H]1c1ncc(-c2ccc(-c3ccc4cc(-c5cnc([C@@H]6CCCN6C(=O)[C@@H](NC(=O)OC)C(C)C)[nH]5)ccc4c3)cc2)[nH]1)c1ccccc1` the EC50 was 0.0272 nM.
`COC(=O)N[C@@H](CCS(C)(=O)=O)C(=O)N1CC2(CC2)C[C@H]1c1ncc(-c2ccc(-c3ccc4cc(-c5cnc([C@@H]6C[C@H](C#N)CN6C(=O)[C@@H](NC(=O)OC)C(C)C)[nH]5)ccc4c3)cc2)[nH]1` showed an EC50 of 0.0405 nM.
`COC(=O)N[C@@H](C(=O)N1CCC[C@@H]1c1ncc(-c2ccc3c(c2)S(=O)(=O)c2cc(-c4cnc([C@H]5CCCN5C(=O)[C@H](NC(=O)OC)C(C)C)[nH]4)ccc2-3)[nH]1)C(C)C` gave an EC50 of 0.0535 nM.
With `COC(=O)N[C@H](C(=O)N1CCC[C@H]1c1ncc(-c2ccc(C#Cc3ccc(-c4cnc([C@@H]5CNCCN5C(=O)[C@@H](NC(=O)OC)C(C)C)[nH]4)cc3)cc2)[nH]1)C(C)C` the EC50 was 0.201 nM.
`COC(=O)N[C@H](C(=O)N1CCC[C@H]1c1ncc(-c2ccc3cc(-c4ccc(-c5cnc([C@@H]6C[C@@H](c7ccccc7)CN6C(=O)[C@@H](NC(=O)OC)C(C)C)[nH]5)cc4)ccc3c2)[nH]1)C(C)C` gave an EC50 of 0.0724 nM.
For `COC(=O)N[C@H](C(=O)N1OC2(CCC2)C[C@H]1c1ncc(-c2ccc(-c3ccc(-c4cnc([C@@H]5CC6(CCC6)ON5C(=O)[C@@H](NC(=O)OC)C(C)C)[nH]4)cc3)cc2)[nH]1)C(C)C`, the EC50 was 0.0054 nM.
`COC(=O)N[C@H](C(=O)N1CCC[C@H]1c1ncc(-c2ccc3cc(-c4ccc(-c5cnc([C@@H]6C[C@H](CNC(C)=O)CN6C(=O)[C@@H](NC(=O)OC)C(C)C)[nH]5)cc4)ccc3c2)[nH]1)C(C)C` gave an EC50 of 0.138 nM.
For `COC(=O)N[C@H](C(=O)N1CCC[C@H]1c1ncc(-c2ccc(-c3ccc(-c4cnc([C@@H]5CN(C(C)=O)CN5C(=O)[C@@H](NC(=O)OC)C(C)C)[nH]4)cc3)cc2)[nH]1)C(C)C`, the EC50 was 0.0852 nM.
`COC(=O)N[C@H](C(=O)N1CCC[C@H]1c1ncc(-c2ccc3c(c2)sc2cc(-c4cnc([C@@H]5CCCN5C(=O)[C@@H](NC(=O)OC)C(C)C)[nH]4)ccc23)[nH]1)C(C)C` was tested, and the EC50 was 0.0074 nM.
Work on `COC(=O)N[C@@H](C)C(=O)N1CCC[C@H]1c1ncc(-c2ccc3cc(-c4ccc5cc(-c6cnc([C@@H]7[C@H]8CC[C@H](C8)N7C(=O)[C@@H](NC(=O)OC)C(C)C)[nH]6)ccc5c4)ccc3c2)[nH]1` yielded an EC50 of 1.15 nM.
In the case of `COC(=O)N[C@H](C(=O)N1CCC[C@H]1c1nc(-c2ccc3c(c2)C(F)(F)c2cc(-c4cnc([C@@H]5CC6(CC6)CN5C(=O)[C@@H](NC(=O)OC)C(C)C)[nH]4)ccc2-3)c[nH]1)C(C)C`, the EC50 is reported as 0.0125 nM.
Work on `COC(=O)N[C@H](C(=O)N1CCC[C@H]1c1nc2ccc(-c3ccc(-c4ccc5nc([C@@H]6CCCN6C(=O)[C@@H](NC(=O)OC)C(C)C)[nH]c5c4)s3)cc2[nH]1)C(C)C` yielded an EC50 of 0.0103 nM.
Compound `COC(=O)N[C@H](C(=O)N1CCC[C@H]1c1ncc(-c2ccc(-c3ccc(-c4cnc(CN5CCC[C@@H](N)C5=O)[nH]4)cc3)cc2)[nH]1)C(C)C` has an EC50 of 7.55 nM.
`COC(=O)N[C@H](C(=O)N1[C@@H]2CC[C@@H](C2)[C@H]1c1ncc(-c2ccc(-c3ccc4cc(-c5cnc([C@@H]6CC7(CC7)CN6C(=O)[C@@H](NC(=O)OC)C(C)C)[nH]5)ccc4c3)cc2)[nH]1)c1ccccc1` was tested, and the EC50 was 0.0071 nM.
With `COC(=O)N[C@H](C(=O)N1C[C@@H](Oc2cnccn2)C[C@H]1c1ncc(-c2ccc(-c3ccc4cc(-c5cnc([C@@H]6CC7(CC7)CN6C(=O)[C@@H](NC(=O)OC)C(C)C)[nH]5)ccc4c3)cc2)[nH]1)C(C)C` the EC50 was 0.014 nM.
`COC(=O)N[C@H](C(=O)N1CCC[C@H]1c1ncc(-c2ccc(C#Cc3ccc(-c4cnc([C@@H]5CN(C(=O)OC)CN5C(=O)[C@@H](NC(=O)OC)C(C)C)[nH]4)cc3)cc2)[nH]1)C(C)C` showed an EC50 of 0.0187 nM.
